The values below come from ChEMBL document CHEMBL1649471, “Nonhuman primates are protected from smallpox virus or monkeypox virus challenges by the antiviral drug ST-246” (2009).

Each structure is given as a SMILES string. The source made the active and inactive calls. No cut-off for these calls is given here.

The test system of assay [1] is Variola virus. Description: Antiviral activity against 1X10'8 PFU Variola virus Harper infected in cynomolgus monkey assessed as total protein level in animal at 300 mg/kg/day, po administered 1 day post infection followed by 5 ml/kg of 30% suspension of hydrated homogenized monkey biscuit measured 11 days post infection. Type of assay: functional.
Assay [2] deals with Variola virus. Briefly: Antiviral activity against 1X10'8 PFU Variola virus Harper infected in cynomolgus monkey assessed as survival of animal at 300 mg/kg/day, po administered 1 day post infection followed by 5 ml/kg of 30% suspension of hydrated homogenized monkey biscuit measured up to 28 days. Type of assay: functional, organism-based.
The test system of assay [3] is Variola virus. Description: Antiviral activity against 1X10'8 PFU Variola virus Harper infected in cynomolgus monkey assessed as inhibition of virus-mediated lesion formation at 300 mg/kg/day, po administered immediately post infection followed by 5 ml/kg of 30% suspension of hydrated homogenized monkey biscuit measured between day 5 to 8. Format: functional, organism-based.

Assay [4] concerns Variola virus. Briefly: Antiviral activity against 1X10'8 PFU Variola virus Harper infected in cynomolgus monkey assessed as albumin level in animal at 300 mg/kg/day, po administered 1 day post infection followed by 5 ml/kg of 30% suspension of hydrated homogenized monkey biscuit measured 11 days post infection. Format: functional.
Assay [5] concerns Variola virus. Description: Antiviral activity against 1X10'8 PFU Variola virus Harper infected in cynomolgus monkey assessed as blood urea nitrogen level in animal at 300 mg/kg/day, po administered 3 days post infection followed by 5 ml/kg of 30% suspension of hydrated homogenized monkey biscuit measured 9 days post infection. Type of assay: functional.
Assay [6] relates to Variola virus. Briefly: Antiviral activity against 1X10'8 PFU Variola virus Harper infected in cynomolgus monkey assessed as […] level in animal at 300 mg/kg/day, po administered immediately after infection followed by 5 ml/kg of 30% suspension of hydrated homogenized monkey biscuit measured 11 days post infection. Type of assay: functional.
Assay [7] deals with Variola virus. Description: Antiviral activity against 1X10'8 PFU Variola virus Harper infected in cynomolgus monkey assessed as percent hematocrit level in animal at 300 mg/kg/day, po administered 3 days post infection followed by 5 ml/kg of 30% suspension of hydrated homogenized monkey biscuit measured 9 days post infection. Format: functional.
In assay [8] the test system is Variola virus. Briefly: Antiviral activity against 1X10'8 PFU Variola virus Harper infected in cynomolgus monkey assessed as platelet count in animal at 300 mg/kg/day, po administered immediately after infection followed by 5 ml/kg of 30% suspension of hydrated homogenized monkey biscuit measured 11 days post infection. Type of assay: functional.
In another assay the test system is Cynomolgus monkey. Briefly: Immunostimulatory activity in cynomolgus monkey infected with 1X10'8 PFU Variola virus Harper assessed as level of IgG at 300 mg/kg/day, po followed by 5 ml/kg of 30% suspension of hydrated homogenized monkey biscuit measured on day 7 by ELISA. Format: functional, organism-based. The settings on record: Macaca fascicularis. In general terms: In an ELISA, binding on a coated surface is turned into a signal by an enzyme label.

Assay [9] deals with Variola virus. Briefly: Antiviral activity against 1X10'8 PFU Variola virus Harper infected in cynomolgus monkey assessed as log decrease in blood viral load at 300 mg/kg/day, po administered 1 day post infection followed by 5 ml/kg of 30% suspension of hydrated homogenized monkey biscuit measured between day 5 to 8. Format: functional.
The test system of assay [10] is Variola virus. Description: Antiviral activity against 1X10'8 PFU Variola virus Harper infected in cynomolgus monkey assessed as white blood cell count in animal at 300 mg/kg/day, po administered 1 day post infection followed by 5 ml/kg of 30% suspension of hydrated homogenized monkey biscuit measured 11 days post infection. Format: functional.
In assay [11] the test system is Monkeypox virus. Description: Antiviral activity against Monkeypox virus Zaire '79 infected in cynomolgus monkey assessed as survival of monkey at 300 mg/kg/day, po administered 72 hrs post infection followed by 5 ml/kg of 30% suspension of hydrated homogenized monkey biscuit measured after 14 days. Type of assay: functional, organism-based.
In assay [12] the test system is Variola virus. Description: Antiviral activity against 1X10'8 PFU Variola virus Harper infected in cynomolgus monkey assessed as white blood cell count in animal at 300 mg/kg/day, po administered immediately after infection followed by 5 ml/kg of 30% suspension of hydrated homogenized monkey biscuit measured 11 days post infection. Format: functional.
Assay [13] has as its system Monkeypox virus. Briefly: Antiviral activity against Monkeypox virus Zaire '79 infected in cynomolgus monkey assessed as survival of monkey at 300 mg/kg/day, po administered 24 hrs post infection followed by 5 ml/kg of 30% suspension of hydrated homogenized monkey biscuit measured after 14 days. Format: functional, organism-based.
Assay [14] deals with Variola virus. Briefly: Antiviral activity against 1X10'8 PFU Variola virus Harper infected in cynomolgus monkey assessed as platelet count in animal at 300 mg/kg/day, po administered 3 days post infection followed by 5 ml/kg of 30% suspension of hydrated homogenized monkey biscuit measured 9 days post infection. Type of assay: functional.
Assay [15] deals with Variola virus. Briefly: Antiviral activity against 1X10'8 PFU Variola virus Harper infected in cynomolgus monkey assessed as white blood cell count in animal at 300 mg/kg/day, po administered 3 days post infection followed by 5 ml/kg of 30% suspension of hydrated homogenized monkey biscuit measured 9 days post infection. Format: functional.
Assay [16] concerns Variola virus. Description: Antiviral activity against 1X10'8 PFU Variola virus Harper infected in cynomolgus monkey assessed as inhibition of virus-mediated lesion formation at 300 mg/kg/day, po administered 1 day post infection followed by 5 ml/kg of 30% suspension of hydrated homogenized monkey biscuit measured between day 5 to 8. Format: functional, organism-based.
Assay [17] concerns Variola virus. Briefly: Antiviral activity against 1X10'8 PFU Variola virus Harper infected in cynomolgus monkey assessed as blood urea nitrogen level in animal at 300 mg/kg/day, po administered immediately after infection followed by 5 ml/kg of 30% suspension of hydrated homogenized monkey biscuit measured 11 days post infection. Format: functional.
Assay [18] has as its system Variola virus. Description: Antiviral activity against 1X10'8 PFU Variola virus Harper infected in cynomolgus monkey assessed as mean corpuscular hemoglobin concentration in animal at 300 mg/kg/day, po administered immediately after infection followed by 5 ml/kg of 30% suspension of hydrated homogenized monkey biscuit measured 11 days post infection. Format: functional.

For assay [19], the system named is Variola virus. Description: Antiviral activity against 1X10'8 PFU Variola virus Harper infected in cynomolgus monkey assessed as total protein level in animal at 300 mg/kg/day, po administered immediately after infection followed by 5 ml/kg of 30% suspension of hydrated homogenized monkey biscuit measured 11 days post infection. Type of assay: functional.
The test system of assay [20] is Variola virus. Briefly: Antiviral activity against 1X10'8 PFU Variola virus Harper infected in cynomolgus monkey assessed as platelet count in animal at 300 mg/kg/day, po administered 1 day post infection followed by 5 ml/kg of 30% suspension of hydrated homogenized monkey biscuit measured 11 days post infection. Format: functional.
The subject of assay [21] is Variola virus. Briefly: Antiviral activity against 1X10'8 PFU Variola virus Harper infected in cynomolgus monkey assessed as aspartate amino transferase level in animal at 300 mg/kg/day, po administered 1 day post infection followed by 5 ml/kg of 30% suspension of hydrated homogenized monkey biscuit measured 11 days post infection. Format: functional.

Take `O=C(NN1C(=O)[C@@H]2[C@@H]3C=C[C@@H]([C@H]4C[C@@H]34)[C@@H]2C1=O)c1ccc(C(F)(F)F)cc1` [TECOVIRIMAT]: the Activity with Variola virus [1] was determined as 6.43 g/dL; in the assay with Variola virus [4] it was 2.9 g/dL; in the assay on Variola virus [5] it was 10.7 mg/dL; in the assay with Variola virus [6], 277 U/L; in the assay with Variola virus [7] it was 35.9%; in the assay on Variola virus [8], 329 ×10³ /uL. Moreover, the Activity in the assay with Variola virus [10] was determined as 7.5 ×10³ /uL; with Variola virus [12], 8.2 ×10³ /uL; in the assay on Variola virus [14], 406 ×10³ /uL; in the assay on Variola virus [15], 12.3 ×10³ /uL; in the assay with Variola virus [17], 19 mg/dL; with Variola virus [18] it was 31.7 g/dL. Moreover, the Activity amounted to 6.37 g/dL with Variola virus [19], 341 ×10³ /uL in the assay on Variola virus [20] and 58 U/L with Variola virus [21]. Further, the outcome in the assay with Variola virus [2], in the assay with Cynomolgus monkey, in the assay on Monkeypox virus [11] and in the assay on Monkeypox virus [13] was Active. Moreover, the inhibition entry with Variola virus [3] and with Variola virus [16] was “Active” each time. Besides, in the assay with Variola virus [9], the FC was 3.
